Measured values: the NIST ThermoML archive (doi:10.1021/je049661s)
Numbers after ± are expanded uncertainties.

Legend:
[1] = xn = mol fraction of the nth substance listed; settings: 101.3 kPa, Liquid
[2] = 101.3 kPa, Liquid

O=[N+]([O-])c1ccccc1 [nitrobenzene] + C1CCCCC1
[1]
Settings | mass density, 298.15 K [kg/m3] | mass density, 303.15 K [kg/m3] | mass density, 308.15 K [kg/m3] | viscosity, 298.15 K [mPa·s] | viscosity, 303.15 K [mPa·s] | viscosity, 308.15 K [mPa·s]
x2 = 0 | 1198.5 ± 2.7 | 1193.6 ± 2.8 | 1191.1 ± 2.9 | 1.686 ± 0.026 | 1.619 ± 0.025 | 1.554 ± 0.024
x2 = 0.0951 | 1160.4 ± 2.6 | 1158 ± 2.7 | 1156 ± 2.8 | 1.589 ± 0.025 | 1.527 ± 0.024 | 1.489 ± 0.023
x2 = 0.1908 | 1121.8 ± 2.5 | 1119.7 ± 2.6 | 1117.6 ± 2.7 | 1.482 ± 0.023 | 1.423 ± 0.022 | 1.385 ± 0.022
x2 = 0.2875 | 1080.5 ± 2.4 | 1078 ± 2.5 | 1075.5 ± 2.6 | 1.369 ± 0.021 | 1.313 ± 0.021 | 1.276 ± 0.02
x2 = 0.3866 | 1037.9 ± 2.3 | 1035 ± 2.4 | 1031.9 ± 2.5 | 1.26 ± 0.02 | 1.21 ± 0.019 | 1.168 ± 0.018
x2 = 0.4828 | 996 ± 2.2 | 993 ± 2.3 | 990 ± 2.3 | 1.167 ± 0.018 | 1.117 ± 0.018 | 1.074 ± 0.017
x2 = 0.5865 | 950.4 ± 2.1 | 947.6 ± 2.2 | 945 ± 2.2 | 1.083 ± 0.017 | 1.032 ± 0.017 | 0.9873 ± 0.016
x2 = 0.685 | 907.2 ± 2 | 905 ± 2 | 902.3 ± 2.1 | 1.022 ± 0.017 | 0.968 ± 0.016 | 0.9182 ± 0.015
x2 = 0.7901 | 861.6 ± 1.8 | 860 ± 1.9 | 856.6 ± 2 | 0.9712 ± 0.016 | 0.9142 ± 0.015 | 0.8626 ± 0.014
x2 = 0.896 | 816.9 ± 1.7 | 814.4 ± 1.8 | 809.1 ± 1.9 | 0.9338 ± 0.015 | 0.874 ± 0.015 | 0.8182 ± 0.014

O=C1CCCCC1 [cyclohexanone]
[2]
Settings | mass density [kg/m3] | viscosity [mPa·s]
298.15 K | 941 ± 2 | 2.021 ± 0.031
303.15 K | 937.4 ± 2.1 | 1.806 ± 0.028
308.15 K | 936.5 ± 2.2 | 1.585 ± 0.025

C1CCCCC1 [cyclohexane] + O=C1CCCCC1
[1], x1 = 1
Settings | mass density [kg/m3] | viscosity [mPa·s]
298.15 K | 773.9 ± 1.6 | 0.8945 ± 0.015
303.15 K | 768.6 ± 1.7 | 0.8284 ± 0.014
308.15 K | 761.2 ± 1.7 | 0.7637 ± 0.013

C1CCCCC1 [cyclohexane]
[2]
Settings | mass density [kg/m3] | viscosity [mPa·s]
298.15 K | 773.9 ± 1.6 | 0.8945 ± 0.015
303.15 K | 768.6 ± 1.7 | 0.8284 ± 0.014
308.15 K | 761.2 ± 1.7 | 0.7637 ± 0.013

O=C1CCCCC1 [cyclohexanone] + C1CCCCC1
[1]
Settings | mass density, 298.15 K [kg/m3] | mass density, 303.15 K [kg/m3] | mass density, 308.15 K [kg/m3] | viscosity, 298.15 K [mPa·s] | viscosity, 303.15 K [mPa·s] | viscosity, 308.15 K [mPa·s]
x2 = 0 | 941 ± 2 | 937.4 ± 2.1 | 936.5 ± 2.2 | 2.021 ± 0.031 | 1.806 ± 0.028 | 1.585 ± 0.025
x2 = 0.0964 | 921.6 ± 2 | 917.9 ± 2.1 | 916.6 ± 2.1 | 1.852 ± 0.028 | 1.661 ± 0.026 | 1.485 ± 0.023
x2 = 0.2003 | 901.3 ± 1.9 | 897.6 ± 2 | 895.7 ± 2.1 | 1.682 ± 0.026 | 1.522 ± 0.024 | 1.384 ± 0.022
x2 = 0.2916 | 883.8 ± 1.9 | 880.2 ± 2 | 878.3 ± 2 | 1.541 ± 0.024 | 1.406 ± 0.022 | 1.296 ± 0.02
x2 = 0.3895 | 866 ± 1.8 | 862.8 ± 1.9 | 860.3 ± 2 | 1.403 ± 0.022 | 1.294 ± 0.02 | 1.203 ± 0.019
x2 = 0.4894 | – | 845.5 ± 1.9 | 842.6 ± 2 | – | 1.184 ± 0.019 | 1.112 ± 0.018
x2 = 0.4895 | 848.9 ± 1.8 | – | – | 1.275 ± 0.02 | – | –
x2 = 0.5886 | – | 828.7 ± 1.8 | 825.6 ± 1.9 | – | 1.084 ± 0.017 | 1.025 ± 0.017
x2 = 0.5887 | 832.5 ± 1.8 | – | – | 1.163 ± 0.018 | – | –
x2 = 0.6957 | 815.4 ± 1.7 | 811.6 ± 1.8 | 807.5 ± 1.9 | 1.063 ± 0.017 | 0.9925 ± 0.016 | 0.9408 ± 0.015
x2 = 0.7951 | 800.3 ± 1.7 | 796.3 ± 1.7 | 791.3 ± 1.8 | 0.9917 ± 0.016 | 0.9237 ± 0.015 | 0.8704 ± 0.015
x2 = 0.8968 | – | 781.8 ± 1.7 | 775.5 ± 1.8 | – | 0.8707 ± 0.015 | 0.8101 ± 0.014
x2 = 0.8969 | 786.5 ± 1.6 | – | – | 0.9386 ± 0.015 | – | –

O=[N+]([O-])c1ccccc1 [nitrobenzene]
[2]
Settings | mass density [kg/m3] | speed of sound [m/s] | viscosity [mPa·s]
298.15 K | 1198.5 ± 2.7 | 1648.4 | 1.686 ± 0.026
303.15 K | 1193.6 ± 2.8 | – | 1.619 ± 0.025
308.15 K | 1191.1 ± 2.9 | – | 1.554 ± 0.024

O=[N+]([O-])c1ccccc1 [nitrobenzene] + O=C1CCCCC1
[1]
Settings | mass density, 298.15 K [kg/m3] | mass density, 303.15 K [kg/m3] | mass density, 308.15 K [kg/m3] | speed of sound, 298.15 K [m/s] | speed of sound, 303.15 K [m/s] | speed of sound, 308.15 K [m/s] | viscosity, 298.15 K [mPa·s] | viscosity, 303.15 K [mPa·s] | viscosity, 308.15 K [mPa·s]
x2 = 0 | 1198.5 ± 2.7 | 1193.6 ± 2.8 | 1191.1 ± 2.9 | 1648.4 | – | 1961 | 1.686 ± 0.026 | 1.619 ± 0.025 | 1.554 ± 0.024
x2 = 0.098 | 1169.6 ± 2.7 | 1167.6 ± 2.7 | 1166.8 ± 2.8 | 1696 | 1842.8 | 1991 | 1.752 ± 0.027 | 1.645 ± 0.025 | 1.556 ± 0.024
x2 = 0.1946 | 1141.8 ± 2.6 | 1140.8 ± 2.7 | 1140.3 ± 2.7 | 1733 | 1873 | 2019.9 | 1.785 ± 0.027 | 1.666 ± 0.026 | 1.557 ± 0.024
x2 = 0.2933 | 1114.5 ± 2.5 | 1113.4 ± 2.6 | 1112.9 ± 2.7 | 1764.1 | 1901.5 | 2041.5 | 1.802 ± 0.028 | 1.678 ± 0.026 | 1.559 ± 0.024
x2 = 0.3938 | 1087.5 ± 2.4 | 1085.6 ± 2.5 | 1084.9 ± 2.6 | 1790 | 1927.7 | 2058.6 ± 1000 | 1.812 ± 0.028 | 1.685 ± 0.026 | 1.561 ± 0.024
x2 = 0.495 | 1061.3 ± 2.4 | 1058.9 ± 2.4 | 1057.9 ± 2.5 | 1811.2 | 1945 | 2069.7 | 1.827 ± 0.028 | 1.695 ± 0.026 | 1.562 ± 0.024
x2 = 0.592 | 1036.9 ± 2.3 | 1034.5 ± 2.4 | 1033.4 ± 2.5 | 1825.7 | 1957 | 2076.4 ± 1000 | 1.848 ± 0.028 | 1.704 ± 0.026 | 1.565 ± 0.024
x2 = 0.6945 | 1011.6 ± 2.2 | 1009.6 ± 2.3 | 1008.6 ± 2.4 | 1839.8 | 1962 | 2080.5 ± 1000 | 1.879 ± 0.029 | 1.721 ± 0.026 | 1.567 ± 0.024
x2 = 0.7966 | 987.5 ± 2.2 | 985.7 ± 2.3 | 985 ± 2.3 | 1848.3 | 1963 | 2080 | 1.921 ± 0.029 | 1.749 ± 0.027 | 1.571 ± 0.024
x2 = 0.8973 | 963.4 ± 2.1 | 961.9 ± 2.2 | 961.4 ± 2.3 | 1853.5 | 1964.1 | 2081.5 | 1.97 ± 0.03 | 1.778 ± 0.027 | 1.577 ± 0.024

C1CCCCC1 [cyclohexane] + O=[N+]([O-])c1ccccc1
[1], x1 = 1
Settings | mass density [kg/m3] | viscosity [mPa·s]
298.15 K | 773.9 ± 1.6 | 0.8945 ± 0.015
303.15 K | 768.6 ± 1.7 | 0.8284 ± 0.014
308.15 K | 761.2 ± 1.7 | 0.7637 ± 0.013

O=C1CCCCC1 [cyclohexanone] + O=[N+]([O-])c1ccccc1
[1], x1 = 1
Settings | mass density [kg/m3] | speed of sound [m/s] | viscosity [mPa·s]
298.15 K | 941 ± 2 | 1847.7 | 2.021 ± 0.031
303.15 K | 937.4 ± 2.1 | – | 1.806 ± 0.028
308.15 K | 936.5 ± 2.2 | – | 1.585 ± 0.025
